# Reference: ChEMBL document CHEMBL1201862, “PubChem BioAssay data set” (2004)
# Activity calls are given as the source filed them.
# Columns and labels:
# [1] = A High Throughput Confirmatory Assay used to Identify Novel Compounds that Inhibit Mycobacterium Tuberculosis in the absence of Glycerol.; assay type: functional
# [2] = microbe, parasite or virus in culture; assay type: functional; conditions: Mycobacterium tuberculosis
# [3] = cells; assay type: functional, cell-based
# [4] = cells; assay type: functional, cell-based; remark: listed apart in the source
# [5] = target: T1, DNA dC->dU-editing enzyme APOBEC-3A (Homo sapiens, UniProt P31941); test: A3A deaminase inhibition for selectivity – biochemical, dose response (AID 504722); assay type: functional
# T1 sequence (P31941 whole entry): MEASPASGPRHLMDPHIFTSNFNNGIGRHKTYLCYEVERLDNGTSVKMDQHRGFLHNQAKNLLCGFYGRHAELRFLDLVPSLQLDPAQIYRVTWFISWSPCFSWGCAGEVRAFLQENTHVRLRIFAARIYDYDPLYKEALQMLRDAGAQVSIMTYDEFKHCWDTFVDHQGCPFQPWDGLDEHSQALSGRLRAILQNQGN
# [6] = target: T2, DNA dC->dU-editing enzyme APOBEC-3G (Homo sapiens, UniProt Q9HC16); test: Dose Response confirmation of small molecule APOBEC3G DNA Deaminase Inhibitors via a fluorescence-based single-stranded DNA deaminase assay. [Related pubchem assays (depositor defined):AID493012, AID493028]; assay type: functional
# T2 sequence (Q9HC16 whole entry): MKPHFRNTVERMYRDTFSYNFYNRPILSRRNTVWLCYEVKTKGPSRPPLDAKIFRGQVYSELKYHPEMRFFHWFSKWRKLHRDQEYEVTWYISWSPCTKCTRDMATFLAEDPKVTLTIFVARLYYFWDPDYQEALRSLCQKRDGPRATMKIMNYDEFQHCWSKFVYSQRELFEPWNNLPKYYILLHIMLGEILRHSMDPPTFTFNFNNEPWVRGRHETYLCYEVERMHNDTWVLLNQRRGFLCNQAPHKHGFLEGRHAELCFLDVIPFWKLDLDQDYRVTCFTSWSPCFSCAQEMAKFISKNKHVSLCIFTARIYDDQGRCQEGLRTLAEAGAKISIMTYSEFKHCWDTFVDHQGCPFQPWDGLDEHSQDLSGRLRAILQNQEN
# [7] = target: Peroxisome proliferator-activated receptor gamma/Nuclear receptor coactivator 1 (Homo sapiens, UniProt P37231); test: TR-FRET dose response biochemical High Throughput Screening assay for agonists of the steroid receptor coactivator 1 (SRC-1) recruitment by the peroxisome proliferator-activated receptor gamma (PPAR gamma): non-selective agonists. [Related pubchem assays (depositor defined):AID1300, AID1808, AID504735, AID631]; assay type: protein assay
# [8] = target: Peroxisome proliferator-activated receptor gamma/Nuclear receptor coactivator 3 (Homo sapiens, UniProt P37231); test: TR-FRET dose response biochemical High Throughput Screening assay for agonists of the steroid receptor coactivator 3 (SRC-3) recruitment by the peroxisome proliferator-activated receptor gamma (PPAR gamma): non-selective agonists. [Related pubchem assays: 1301 (Confirmation screen.), 1048 (Primary screen.)]; assay type: functional
# Chain of Peroxisome proliferator-activated receptor gamma/Nuclear receptor coactivator 3 (P37231 whole entry): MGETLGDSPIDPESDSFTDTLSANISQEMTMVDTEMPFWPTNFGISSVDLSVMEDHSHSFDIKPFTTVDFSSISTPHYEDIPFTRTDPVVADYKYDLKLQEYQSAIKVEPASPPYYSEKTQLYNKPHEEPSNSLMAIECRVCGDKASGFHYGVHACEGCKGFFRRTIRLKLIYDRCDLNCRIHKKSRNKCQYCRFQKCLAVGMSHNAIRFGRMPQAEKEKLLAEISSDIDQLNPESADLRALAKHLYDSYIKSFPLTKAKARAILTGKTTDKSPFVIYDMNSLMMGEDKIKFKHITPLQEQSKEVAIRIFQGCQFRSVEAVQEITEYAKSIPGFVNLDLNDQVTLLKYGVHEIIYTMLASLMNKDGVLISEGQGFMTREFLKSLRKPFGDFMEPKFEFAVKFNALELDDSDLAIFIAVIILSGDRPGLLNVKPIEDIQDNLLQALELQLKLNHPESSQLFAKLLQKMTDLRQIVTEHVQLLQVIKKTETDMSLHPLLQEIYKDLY
# Chain of Peroxisome proliferator-activated receptor gamma/Nuclear receptor coactivator 3 (Q9Y6Q9 whole entry, further chain): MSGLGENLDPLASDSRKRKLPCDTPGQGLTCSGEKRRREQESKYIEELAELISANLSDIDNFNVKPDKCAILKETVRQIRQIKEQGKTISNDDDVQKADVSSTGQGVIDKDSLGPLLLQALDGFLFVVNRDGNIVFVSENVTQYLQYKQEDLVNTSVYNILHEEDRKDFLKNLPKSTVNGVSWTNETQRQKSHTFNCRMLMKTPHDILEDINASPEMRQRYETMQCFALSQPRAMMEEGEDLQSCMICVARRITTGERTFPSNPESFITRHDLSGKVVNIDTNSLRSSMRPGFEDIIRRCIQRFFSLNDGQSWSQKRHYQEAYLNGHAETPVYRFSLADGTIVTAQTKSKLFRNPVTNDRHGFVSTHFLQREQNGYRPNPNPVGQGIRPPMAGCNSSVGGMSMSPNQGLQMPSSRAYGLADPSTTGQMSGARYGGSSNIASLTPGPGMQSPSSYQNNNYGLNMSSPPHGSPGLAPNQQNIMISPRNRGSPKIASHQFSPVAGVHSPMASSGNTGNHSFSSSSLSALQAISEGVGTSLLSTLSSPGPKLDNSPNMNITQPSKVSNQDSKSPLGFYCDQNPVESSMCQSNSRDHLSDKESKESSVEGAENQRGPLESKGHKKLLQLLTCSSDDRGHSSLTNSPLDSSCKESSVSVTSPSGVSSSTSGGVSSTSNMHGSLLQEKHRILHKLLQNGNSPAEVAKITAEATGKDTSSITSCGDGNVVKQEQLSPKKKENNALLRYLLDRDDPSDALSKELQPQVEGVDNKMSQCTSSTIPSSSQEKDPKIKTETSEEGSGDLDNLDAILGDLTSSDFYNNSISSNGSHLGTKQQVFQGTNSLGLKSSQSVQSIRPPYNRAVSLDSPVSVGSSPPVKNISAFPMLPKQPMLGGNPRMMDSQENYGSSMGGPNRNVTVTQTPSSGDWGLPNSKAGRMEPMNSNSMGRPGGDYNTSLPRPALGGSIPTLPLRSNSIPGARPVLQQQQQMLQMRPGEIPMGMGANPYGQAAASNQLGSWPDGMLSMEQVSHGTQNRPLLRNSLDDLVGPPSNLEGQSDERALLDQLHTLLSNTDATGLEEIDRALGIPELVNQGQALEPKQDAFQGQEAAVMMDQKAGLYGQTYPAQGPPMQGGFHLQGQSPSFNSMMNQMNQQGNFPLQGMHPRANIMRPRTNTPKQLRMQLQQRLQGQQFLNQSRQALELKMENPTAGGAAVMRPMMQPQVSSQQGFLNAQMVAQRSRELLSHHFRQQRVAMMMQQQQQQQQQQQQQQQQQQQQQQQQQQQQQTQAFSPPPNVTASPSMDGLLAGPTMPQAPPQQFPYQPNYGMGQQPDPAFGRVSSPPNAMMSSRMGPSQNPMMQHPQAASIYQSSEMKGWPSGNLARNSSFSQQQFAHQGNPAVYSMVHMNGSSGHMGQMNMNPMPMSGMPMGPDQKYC
# [9] = target: Peroxisome proliferator-activated receptor gamma/Nuclear receptor coactivator 2 (Homo sapiens, UniProt P37231); test: TR-FRET dose response biochemical High Throughput Screening assay for agonists of the steroid receptor coactivator 2 (SRC-2) recruitment by the peroxisome proliferator-activated receptor gamma (PPAR gamma): non-selective agonists. [Related pubchem assays: 1297, 1032 ]; assay type: functional
# [10] = target: FAD-linked sulfhydryl oxidase ALR (Homo sapiens, UniProt P55789); test: ALR-catalysed DTT oxidation blockers – biochemical, H2O2 detection, luminescence, cherry-pick, dose response (AID 493248)
# Chain of FAD-linked sulfhydryl oxidase ALR (P55789 whole entry): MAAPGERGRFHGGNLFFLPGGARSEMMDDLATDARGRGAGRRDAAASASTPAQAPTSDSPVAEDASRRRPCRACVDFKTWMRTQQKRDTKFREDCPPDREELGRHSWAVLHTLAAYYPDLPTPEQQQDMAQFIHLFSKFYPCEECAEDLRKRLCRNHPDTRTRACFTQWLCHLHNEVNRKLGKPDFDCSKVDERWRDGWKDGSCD
# [11] = target: Eukaryotic translation initiation factor 4H (Homo sapiens, UniProt Q15056); test: eIF4H binding inhibition – biochemical, uHTS, fluorescence polarization, translation initiation inhibitor project, primary screen (AID 2012)
# [12] = target: Polyadenylate-binding protein 1 (Homo sapiens, UniProt P11940); test: blockers of PABP interaction with poly(A) – biochemical, fluorescence polarization, […] (AID 2014)
# Chain of Polyadenylate-binding protein 1 (P11940 whole entry): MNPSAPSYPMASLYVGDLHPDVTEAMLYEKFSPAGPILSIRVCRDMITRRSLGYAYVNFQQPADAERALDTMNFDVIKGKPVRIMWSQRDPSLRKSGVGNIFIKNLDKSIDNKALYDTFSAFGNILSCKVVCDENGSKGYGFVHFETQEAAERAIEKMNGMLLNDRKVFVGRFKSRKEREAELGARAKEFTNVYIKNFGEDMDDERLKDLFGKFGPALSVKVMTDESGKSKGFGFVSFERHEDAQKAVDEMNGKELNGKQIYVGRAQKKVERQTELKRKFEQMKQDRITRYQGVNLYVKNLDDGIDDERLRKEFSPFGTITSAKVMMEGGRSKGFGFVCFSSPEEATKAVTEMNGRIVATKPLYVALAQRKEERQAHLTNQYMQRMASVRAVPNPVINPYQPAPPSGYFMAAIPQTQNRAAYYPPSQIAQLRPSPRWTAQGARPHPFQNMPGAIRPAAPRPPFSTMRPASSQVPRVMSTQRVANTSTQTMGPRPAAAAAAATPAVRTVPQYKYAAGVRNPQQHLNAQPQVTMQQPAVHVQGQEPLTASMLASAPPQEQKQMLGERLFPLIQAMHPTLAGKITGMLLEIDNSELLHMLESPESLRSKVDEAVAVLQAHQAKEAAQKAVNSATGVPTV
# [13] = target: T1, DNA dC->dU-editing enzyme APOBEC-3A; test: Dose Response confirmation of small molecule APOBEC3A DNA Deaminase Inhibitors via a fluorescence-based single-stranded DNA deaminase assay. [Related pubchem assays (depositor defined):AID493011, AID493024]; assay type: functional
# [14] = target: T3, Ubiquitin-conjugating enzyme E2 N (Homo sapiens, UniProt P61088); assay type: functional;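 note: Dose-response confirmation in a TR-FRET assay detecting UBC13-driven polyubiquitin chain formation, inhibition measured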
# T3 sequence (P61088 whole entry): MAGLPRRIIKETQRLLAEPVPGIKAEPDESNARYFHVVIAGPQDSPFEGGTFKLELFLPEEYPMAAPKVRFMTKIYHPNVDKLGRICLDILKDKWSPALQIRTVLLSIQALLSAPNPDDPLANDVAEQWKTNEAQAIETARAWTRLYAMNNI
# [15] = target: T2, DNA dC->dU-editing enzyme APOBEC-3G; assay type: functional
# [16] = HPDE-C7 pancreatic duct cell viability loss – fluorescence, HTS (AID 430); assay type: functional, cell-based; conditions: Homo sapiens
# [17] = viability loss of HPDE-C7K cells – cell-based, fluorescence, HTS, primary screen (AID 431); assay type: functional; conditions: Homo sapiens
# [18] = target: CAAX prenyl protease 2 (Saccharomyces cerevisiae S288c, UniProt Q03530); assay type: biochemical
# Chain of CAAX prenyl protease 2 (Q03530 whole entry): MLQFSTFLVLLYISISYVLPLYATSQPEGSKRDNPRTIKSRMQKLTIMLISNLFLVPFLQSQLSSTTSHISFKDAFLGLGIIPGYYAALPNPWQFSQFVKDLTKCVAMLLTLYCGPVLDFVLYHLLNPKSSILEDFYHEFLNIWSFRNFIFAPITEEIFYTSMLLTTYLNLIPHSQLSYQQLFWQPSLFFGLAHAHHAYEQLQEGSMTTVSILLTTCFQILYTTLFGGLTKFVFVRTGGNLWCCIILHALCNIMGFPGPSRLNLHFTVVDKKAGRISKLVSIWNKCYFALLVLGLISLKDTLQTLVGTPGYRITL
# [19] = target: T4, Leucine aminopeptidase (Plasmodium falciparum 3D7, UniProt Q8IL11); test: P. falciparum M17LAP inhibitors, primary screen, biochemical, fluorogenic H-Leu-NHMec substrate, 1536-well (AID 1619); assay type: functional
# T4 sequence (Q8IL11 whole entry): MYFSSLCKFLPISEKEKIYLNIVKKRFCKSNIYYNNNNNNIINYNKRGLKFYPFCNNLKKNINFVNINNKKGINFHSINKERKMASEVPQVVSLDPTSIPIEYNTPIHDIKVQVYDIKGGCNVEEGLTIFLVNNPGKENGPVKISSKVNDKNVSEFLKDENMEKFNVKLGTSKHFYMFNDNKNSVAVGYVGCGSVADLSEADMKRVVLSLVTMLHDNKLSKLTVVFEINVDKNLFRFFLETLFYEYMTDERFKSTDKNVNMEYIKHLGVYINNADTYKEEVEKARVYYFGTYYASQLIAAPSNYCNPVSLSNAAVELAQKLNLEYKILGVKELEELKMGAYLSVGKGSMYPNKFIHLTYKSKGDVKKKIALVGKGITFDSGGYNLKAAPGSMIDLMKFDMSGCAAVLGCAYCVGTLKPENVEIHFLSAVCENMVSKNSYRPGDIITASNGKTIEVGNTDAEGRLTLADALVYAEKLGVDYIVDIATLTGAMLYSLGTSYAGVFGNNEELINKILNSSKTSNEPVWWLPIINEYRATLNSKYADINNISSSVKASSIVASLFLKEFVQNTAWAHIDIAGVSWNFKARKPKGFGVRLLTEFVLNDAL
# [20] = target: T5, Aspartyl aminopeptidase (Plasmodium falciparum 3D7, UniProt Q8I2J3); test: Counterscreen for inhibitors of M1 and M17 aminopeptidases: QFRET-based biochemical high throughput dose response assay for inhibitors of the Plasmodium falciparum M18 Aspartyl Aminopeptidase (PFM18AAP). [Related PubChem assays: 1619 (Screening assay (M17LAP inhibitors).), 1445 (Screening assay (M1AAP inhibitors).)]
# T5 sequence (Q8I2J3 whole entry): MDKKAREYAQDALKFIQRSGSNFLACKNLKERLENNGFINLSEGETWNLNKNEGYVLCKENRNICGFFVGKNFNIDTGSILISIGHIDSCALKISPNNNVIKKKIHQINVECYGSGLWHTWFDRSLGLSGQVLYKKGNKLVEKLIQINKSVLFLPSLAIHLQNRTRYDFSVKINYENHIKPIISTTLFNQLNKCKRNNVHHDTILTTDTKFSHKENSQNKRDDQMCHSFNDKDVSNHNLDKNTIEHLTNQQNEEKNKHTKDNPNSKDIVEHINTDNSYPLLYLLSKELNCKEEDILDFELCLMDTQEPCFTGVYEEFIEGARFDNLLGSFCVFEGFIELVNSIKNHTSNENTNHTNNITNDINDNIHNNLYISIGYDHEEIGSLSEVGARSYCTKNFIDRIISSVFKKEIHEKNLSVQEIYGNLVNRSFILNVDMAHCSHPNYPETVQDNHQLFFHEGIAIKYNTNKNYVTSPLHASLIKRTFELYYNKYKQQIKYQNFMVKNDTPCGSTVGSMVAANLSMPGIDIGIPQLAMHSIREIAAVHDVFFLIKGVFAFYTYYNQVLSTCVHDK
# [21] = target: Procathepsin L (Homo sapiens, UniProt P07711); test: CTSL1 protease inhibition – biochemical, QFRET, 1536-well, counter-screen for M1/M17 aminopeptidase inhibitor project, dose response (AID 2214)
# Chain of Procathepsin L (P07711 whole entry): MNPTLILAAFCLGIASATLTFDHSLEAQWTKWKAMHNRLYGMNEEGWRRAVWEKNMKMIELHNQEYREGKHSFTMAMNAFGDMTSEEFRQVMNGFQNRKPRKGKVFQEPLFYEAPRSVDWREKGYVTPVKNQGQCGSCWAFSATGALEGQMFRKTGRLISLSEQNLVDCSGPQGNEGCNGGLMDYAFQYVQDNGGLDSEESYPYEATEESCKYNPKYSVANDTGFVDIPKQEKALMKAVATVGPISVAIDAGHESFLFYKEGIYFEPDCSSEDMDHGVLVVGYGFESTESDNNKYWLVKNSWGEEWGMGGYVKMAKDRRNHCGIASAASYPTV
# [22] = tested on: HEK293; test: Fluorescence-based counterscreen for potentiators or agonists of NPY-Y2: cell-based high-throughput dose response assay to identify inhibitors of cyclic nucleotide gated ion channel (CNGC) activity. In this assay, the parental HEK293 cell line transfected with a cyclic-nucleotide gated ion channel (CNGC)-based cAMP sensor is used to measure inhibition of isoproterenol-induced CNGC activity by test compound.; assay type: functional; conditions: Homo sapiens;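 note: stimulus is 1 µM isoproterenol at EC100 plus PDE inhibitor Ro 20-1724 at 25 µM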
# [23] = target: T6, Neuropeptide Y receptor type 2 (Homo sapiens, UniProt P49146); test: Fluorescence-based cell-based high-throughput dose response assay for agonists of NPY-Y2. [Related pubchem assays: 1703 (Screening assay (CNGC inhibitors).), 1359 (Screening assay (NPY-Y2 potentiators or agonists).), 1304 (Screening assay (NPY-Y1 potentiators or agonists).), 1710 (Screening assay (NPY-Y2 agonists).), 1791 (Summary AID.)]; assay type: functional
# T6 sequence (P49146 whole entry): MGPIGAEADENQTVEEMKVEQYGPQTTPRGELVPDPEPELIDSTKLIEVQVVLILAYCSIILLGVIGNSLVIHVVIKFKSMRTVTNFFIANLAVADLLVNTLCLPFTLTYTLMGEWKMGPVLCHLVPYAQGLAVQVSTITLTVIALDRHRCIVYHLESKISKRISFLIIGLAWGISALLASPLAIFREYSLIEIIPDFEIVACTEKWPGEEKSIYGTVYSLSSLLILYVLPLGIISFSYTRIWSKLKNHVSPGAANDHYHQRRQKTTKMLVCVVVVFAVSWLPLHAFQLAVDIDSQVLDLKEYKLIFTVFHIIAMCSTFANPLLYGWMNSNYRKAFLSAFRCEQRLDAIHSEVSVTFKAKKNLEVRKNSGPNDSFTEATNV
# [24] = target: T7, Neuropeptide Y receptor type 1 (Homo sapiens, UniProt P25929); test: Fluorescence-based counterscreen for agonists of NPY-Y2: cell-based high-throughput dose response assay for agonists of NPY-Y1.; assay type: functional
# T7 sequence (P25929 whole entry): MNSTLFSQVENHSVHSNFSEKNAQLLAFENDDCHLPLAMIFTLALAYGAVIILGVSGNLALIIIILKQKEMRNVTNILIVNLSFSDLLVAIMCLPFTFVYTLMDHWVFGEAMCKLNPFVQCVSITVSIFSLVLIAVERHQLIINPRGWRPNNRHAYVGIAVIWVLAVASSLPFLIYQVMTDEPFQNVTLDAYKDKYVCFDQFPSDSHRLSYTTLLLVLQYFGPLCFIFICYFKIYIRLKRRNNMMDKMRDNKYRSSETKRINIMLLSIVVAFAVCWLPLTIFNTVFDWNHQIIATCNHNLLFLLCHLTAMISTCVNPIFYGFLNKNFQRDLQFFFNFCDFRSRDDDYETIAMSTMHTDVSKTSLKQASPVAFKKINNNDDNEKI
# [25] = viability of uninfected HEp-2 cells – cell-based, HTS, cytotoxicity control for RSV inhibitor project, dose response (AID 2410); assay type: functional; conditions: human respiratory syncytial virus
# [26] = cells
smiles,measurement,setting,value
CCCCCNc1nc(N2CCCC2)c2c(c1C#N)CCN(C)C2,IC50,[1],> 100 µM (active)
same,CC50,[2],> 40 µM (active)
Sc1nnc(-c2ccco2)n1/N=C/c1cccs1,EC50,[3],> 350 µM (not active)
same,EC50,[4],> 350 µM (not active)
same,IC50,[5],> 100 µM (inactive)
same,IC50,[6],3.28 µM (active)
Cc1cccc(-n2c(S)nnc2-c2ccco2)c1,EC50,[7],> 79.4 µM (inactive)
same,EC50,[8],> 79.4 µM (not active)
same,EC50,[9],> 79.4 µM (not active)
same,IC50,[5],> 100 µM (inactive)
same,IC50,[6],6.36 µM (active)
same,AC50,[10],5.51 µM (active)
CN(Cc1cccc(Cl)c1)C(=O)C1CSC2(C)CCC(=O)N12 (centres undefined),IC50,[11],> 100 µM (inactive)
same,IC50,[12],29.4 µM (active)
Cc1ccc2c(c1)C1C[N+](C)(CC(=O)c3ccc(Cl)cc3Cl)CCC1N2C(=O)c1ccc(F)cc1 (centres undefined),IC50,[13],2.65 µM (active)
same,IC50,[14],> 20 µM (inactive)
same,IC50,[15],2.88 µM (active)
CCc1c(C)nc(N)nc1OCC(F)(F)C(F)F,EC50,[16],> 20 µM (not active)
same,EC50,[17],> 20 µM (not active)
Nc1c(Cl)cc(C2=NCCn3nc4cc(C(F)(F)F)ccc4c32)cc1Cl,AC50,[18],5.28 µM (active)
Cc1ccc(O)c(-c2cc(-c3ccccc3C)[nH]n2)c1,EC50,[16],11 µM (active)
same,EC50,[17],8.16 µM (active)
Cc1ccc(-c2cccc(NC(=O)C3C4C=CC(C4)C3C(=O)O)c2)o1 (centres undefined),IC50,[19],3.86 µM (active)
same,IC50,[20],> 73.5 µM (not active)
same,IC50,[21],> 59.6 µM (not active)
CCc1cc[n+](/C(C([S-])=Nc2cccc(C)c2)=C(/O)c2ccc(C)c([N+](=O)[O-])c2)cc1,EC50,[22],> 35.4 µM (not active)
same,EC50,[23],> 35.4 µM (not active)
same,EC50,[24],> 35.4 µM (not active)
Cc1cc(Nc2ccccc2Cl)nc(-c2ccccc2O)n1,CC50,[25],38.5 µM (active)
same,IC50,[26],34.7 µM (active)
Cc1cccc(NC(=O)CSc2nc(O)c(C#N)c(-c3ccccc3)n2)c1C,IC50,[19],5.37 µM (active)
same,IC50,[20],> 73.5 µM (not active)
same,IC50,[21],> 59.6 µM (not active)
CCn1c(C)cc(/C=C2\NC(=O)N(CC(=O)Nc3ccc(F)cc3)C2=O)c1C,IC50,[13],1.24 µM (active)
same,IC50,[15],2.2 µM (active)
COc1cc2ccccc2cc1C(=O)N(CCN(C)C)c1nc2ccc(C)cc2s1,AC50,[18],11.3 µM (active)
COc1ccc(S(=O)(=O)NCc2ccco2)cc1-c1nnc2c3ccccc3c(C)nn12,IC50,[26],11.2 µM (active)
Cc1sc2ncnc(N3CCC(C(=O)N(CC(C)C)c4nc5ccccc5s4)CC3)c2c1C,IC50,[1],> 100 µM (active)
same,CC50,[2],> 40 µM (active)
